Experimental data as given in US5817756A, “Pseudo- and non-peptide bradykinin receptor antagonists” (Scios Inc., priority 1995, dated 1998).
Starred links: 1 amine or outer side, 2 acyl side, 3 side chain; linkers in the order of their positions; H or OH if unused. Non-standard residues stand in square brackets, D forms with d. Residues, ends and D or L forms follow the SMILES beside them. Oic = O=C(O)[C@@H]1C[C@@H]2CCCC[C@@H]2N1; X10 = O=C(C(/C=C/CN[*:1])Cc1ccccc1)[*:2]; X5 = O=C(/C=C/c1cccc(CN[*:1])c1)[*:2]; X11 = O=C(/C=C/C1CCCCC1CN[*:1])[*:2]; X13 = O=C(CCc1cccc(CN[*:1])c1)[*:2]; X2 = O=C(/C=C/c1ccccc1CN[*:1])[*:2]; Hyp = O=C(O)[C@@H]1C[C@@H](O)CN1; X8 = O=C(CCc1ccccc1CN[*:1])[*:2]; dTic = O=C(O)[C@H]1Cc2ccccc2CN1

Biological target: T1, bradykinin receptor, guinea pig terminal ileum homogenate (Cavia porcellus, UniProt O70526)
T1 construct: from tissue; host or cells: terminal ileum of male Hartley guinea pigs, washed membrane homogenate
T1 sequence (O70526 1-372): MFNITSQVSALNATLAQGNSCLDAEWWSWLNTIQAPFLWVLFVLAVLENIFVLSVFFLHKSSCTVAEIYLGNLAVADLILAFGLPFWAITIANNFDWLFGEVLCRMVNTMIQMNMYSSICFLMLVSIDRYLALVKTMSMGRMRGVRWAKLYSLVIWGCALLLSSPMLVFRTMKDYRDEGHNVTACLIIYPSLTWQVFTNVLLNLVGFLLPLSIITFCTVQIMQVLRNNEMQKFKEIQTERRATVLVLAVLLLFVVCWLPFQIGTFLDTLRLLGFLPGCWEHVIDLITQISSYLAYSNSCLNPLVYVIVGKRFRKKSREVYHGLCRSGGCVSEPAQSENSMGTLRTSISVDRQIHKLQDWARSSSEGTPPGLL
Experiment: Guinea pig ileum binding of 3H-bradykinin
Conditions: Table 1, read-out: Radioligand Binding Guinea Pig
Protocol: Binding of ^3 H-bradykinin was performed using the method of D. C. Manning, R. Vavrek, J. M. Stewart, and S. H. Snyder, J. Pharmacol. Exp. Ther., (1986) 237:504. The tissues used in the binding assay were terminal ileum from male Hartley guinea pigs (150-350 g). After dissection, tissues were placed in 20 volume of ice-cold buffer A (25 mM TES containing 0.2 g/l of 1,10-phenanthroline adjusted of pH 6.8 with ammonium hydroxide) and homogenized using a Polytron Tissumizer at setting 6 for 15 seconds. The homogenate was centrifuged at 50,000×g for 10 minutes, the supernatant discarded, and the pellet resuspended in ice-cold buffer A by homogenization with the Polytron. Each tissue was homogenized and centrifuged three times. The final pellet was resuspended in buffer A containing bovine serum albumin (1 g/l) and Bacitracin (0.14 g/l) to a final volume of 170 ml/g of the original tissue weight. The binding assay consisted of […] in 12×75 mm polypropylene tubes: 50 μl ^3 H-bradykinin (20,000 dpm, ~0.3 nM in the final assay volume), 100 μl displacing drug in buffer A, and 750 μl tissue homogenate. Each tray contained tubes, to which no drug was added to measure maximum binding and tubes to which bradykinin (1 μM final concentration) had been added, to measure […]. Specific binding accounted for 96-98% total binding. Tubes were incubated for 90 minutes at ambient temperature. The assays were terminated by filtration over Whatman GF/B glass fiber filters that had been pretreated for 2 hours with polyethyleneimine (2 g/l) using a Brandel Tissue Harvester, followed by washing with 4×1 ml aliquots of ice-cold 50 mM Tris, pH 7.4. Filters were dissolved in Ready-Safe Fluor (Beckman) for at least 90 minutes before quantitation by liquid scintillation spectrometry. Kd values were determined using saturation binding and analysis by EBDA (G. A. MacPherson, J. Pharmacol. Methods (1985) 213), followed by LIGAND (P. J. Munson, D. Rodbard, Anal. Biochem. (1980) 220). Ki values were determined using competitive analysis followed by EBDA and LIGAND.

| Structure (SMILES) | Ki [nM] |
| --- | --- |
| N=C(N)NCCC[C@@H](N)C(=O)N[C@@H](CCCNC(=N)N)C(=O)N1CCC[C@H]1C(=O)N1C[C@H](O)C[C@H]1C(=O)NC/C=C/C(Cc1ccccc1)C(=O)N[C@@H](CO)C(=O)N1Cc2ccccc2C[C@@H]1C(=O)N1[C@H](C(=O)N[C@@H](CCCNC(=N)N)C(=O)O)C[C@@H]2CCCC[C@@H]21 (some centres unmarked) (H-[dR]RP[Hyp][X10]S[dTic][Oic]R-OH) | 358 |
| C[C@H](NC(=O)/C=C/c1ccccc1CNC(=O)[C@H](CCCNC(=N)N)NC(=O)[C@H](N)CCCNC(=N)N)C(=O)N1Cc2ccccc2C[C@@H]1C(=O)N1[C@H](C(=O)N[C@@H](CCCNC(=N)N)C(=O)O)C[C@@H]2CCCC[C@@H]21 (H-[dR]R[X2]A[dTic][Oic]R-OH) | 278 |
| N=C(N)NCCC[C@@H](N)C(=O)N[C@@H](CCCNC(=N)N)C(=O)NCc1ccccc1/C=C/C(=O)N[C@@H](Cc1ccccc1)C(=O)N[C@@H](CO)C(=O)N1Cc2ccccc2C[C@@H]1C(=O)N1[C@H](C(=O)N[C@@H](CCCNC(=N)N)C(=O)O)C[C@@H]2CCCC[C@@H]21 (H-[dR]R[X2]FS[dTic][Oic]R-OH) | 1270 |
| N=C(N)NCCC[C@@H](N)C(=O)N[C@@H](CCCNC(=N)N)C(=O)NCc1ccccc1/C=C/C(=O)N[C@@H](CO)C(=O)N1Cc2ccccc2C[C@@H]1C(=O)N1[C@H](C(=O)N[C@@H](CCCNC(=N)N)C(=O)O)C[C@@H]2CCCC[C@@H]21 (H-[dR]R[X2]S[dTic][Oic]R-OH) | 120 ± 8 |
| N=C(N)NCCC[C@@H](N)C(=O)N[C@@H](CCCNC(=N)N)C(=O)NCc1cccc(/C=C/C(=O)N[C@@H](CO)C(=O)N2Cc3ccccc3C[C@@H]2C(=O)N2[C@H](C(=O)N[C@@H](CCCNC(=N)N)C(=O)O)C[C@@H]3CCCC[C@@H]32)c1 (H-[dR]R[X5]S[dTic][Oic]R-OH) | 496 |
| N=C(N)NCCC[C@@H](N)C(=O)N[C@@H](CCCNC(=N)N)C(=O)NCc1ccccc1CCC(=O)N[C@@H](CO)C(=O)N1Cc2ccccc2C[C@@H]1C(=O)N1[C@H](C(=O)N[C@@H](CCCNC(=N)N)C(=O)O)C[C@@H]2CCCC[C@@H]21 (H-[dR]R[X8]S[dTic][Oic]R-OH) | 563 |
| N=C(N)NCCC[C@@H](N)C(=O)N[C@@H](CCCNC(=N)N)C(=O)NCC1CCCCC1/C=C/C(=O)N[C@@H](CO)C(=O)N1Cc2ccccc2C[C@@H]1C(=O)N1[C@H](C(=O)N[C@@H](CCCNC(=N)N)C(=O)O)C[C@@H]2CCCC[C@@H]21 (some centres unmarked) (H-[dR]R[X11]S[dTic][Oic]R-OH) | 638 |
| N=C(N)NCCC[C@@H](N)C(=O)N[C@@H](CCCNC(=N)N)C(=O)NCc1cccc(CCC(=O)N[C@@H](CO)C(=O)N2Cc3ccccc3C[C@@H]2C(=O)N2[C@H](C(=O)N[C@@H](CCCNC(=N)N)C(=O)O)C[C@@H]3CCCC[C@@H]32)c1 (H-[dR]R[X13]S[dTic][Oic]R-OH) | 466 |

Biological target: T2, human bradykinin B2 receptor (Homo sapiens, UniProt P30411)
T2 construct: The HindIII/XbaI fragment of one full-length clone, 126A, was inserted into pcDNAI neo vector; expressed in transfected cells
T2 sequence (P30411 1-391): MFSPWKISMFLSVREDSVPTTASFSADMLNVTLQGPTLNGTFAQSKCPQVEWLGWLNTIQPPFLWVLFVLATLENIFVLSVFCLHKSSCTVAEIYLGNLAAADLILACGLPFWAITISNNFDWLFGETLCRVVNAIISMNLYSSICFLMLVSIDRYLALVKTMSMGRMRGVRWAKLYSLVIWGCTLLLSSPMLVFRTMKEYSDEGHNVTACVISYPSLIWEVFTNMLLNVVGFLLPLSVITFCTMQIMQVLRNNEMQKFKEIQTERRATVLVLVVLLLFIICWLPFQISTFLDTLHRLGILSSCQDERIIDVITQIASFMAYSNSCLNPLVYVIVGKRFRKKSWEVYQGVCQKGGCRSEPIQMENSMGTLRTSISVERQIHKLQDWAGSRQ
Experiment: Radioligand binding, H2O.2 cell membranes, 3H-NPC17731
Conditions: Table 1; 3H-NPC17731; read-out: Radioligand Binding Human 3H17731
Protocol: A human bradykinin B2 receptor was expressed in CHO/K cells. Briefly, approximately 2×10^6 plaques from a human uterus λgt10 cDNA library (Clontech Laboratories; Palo Alto, Calif.) were screened using a PCR fragment containing the coding region of the rat B2 receptor. This probe was generated by random-primed synthesis in the presence of α[^32 P]dATP. Duplicate filters were hybridized overnight at 42° C. in 1M NaCl, 50 mM Tris pH 7.5, 5× Denhardt's, 200 μg/ml salmon sperm DNA, 1% SDS, and 20% formamide. The filters were washed at 65° C. in 1× SSC and 1% SDS. Coincident positively hybridizing plaques were purified and rescreened with the same probe and stringency conditions. EcoRI fragments of positive clones were inserted into Bluescript/KS II+vector (Stratagene; La Jolla, Calif.) for sequence determination.
The nucleotide sequence of the cloned human B2 receptors was determined using double-stranded DNA and the dideoxy chain termination method. Commercially available T3 and T7 oligonucleotides (USB; Cleveland, Ohio) and synthetic 21-mer oligonucleotides (DNA/RNA Synthesizer; applied Biosystems Inc.; Palo Alto, Calif.) from both the known rat sequence and the determined human sequence were used to identify the nucleotide sequence from the 5' untranslated end to the BglII site in the 3' untranslated end of the clone.
CHO/K cells were plated in 2 ml of growth medium (Ham's F12 with 10% FBS) per 6 well plate and incubated at 37° C., 5% CO2 until they were 60% confluent. For each well, 4, 12, and 16 μg of DNA was diluted in 100 μl Opti-MEM I reduced serum medium (Gibco/BRL; Gaithersburg, Md.). 12 μl of TransfectASE reagent (Gibco/BRL) was diluted in a separate aliquot of 100 μl Opti-MEM I. The DNA and TransfecASE solutions were combined, mixed gently, and incubated at 25° C. for 15 minutes. This solution was then diluted to 1 ml with Opti-MEM I. Each well was washed twice with Opti-MEM I and 1 ml of the DNA/TransfectAse complex was added to each well. After a 5 hour incubation at 37° C. and 5% CO2, 1 ml of Ham's F12 with 20% FBS was added to each well and cells were incubated overnight. Media was replaced with growth medium and incubated for additional 24 hours.
This assay measures the ability of a bradykinin antagonist compound to compete for binding to the human B2 receptor with tritiated bradykinin or tritiated NPC17731, a bradykinin analog which is known to bind the B2 receptor and act as a bradykinin antagonist.
H2O.2 cells were grown to confluency in Ham's F12 media containing 10% FBS and 500 μg/ml Geneticin. Growth media was aspirated and the monolayer washed once with Dulbecco's PBS without Ca^++ and Mg^++. Cells were scraped in Dulbecco's PBS and centrifuged at 2,000×g for 10 minutes. Pellets were resuspended in 25 mM TES, 1 mM 1,10-phenanthroline pH 6.8 buffer and homogenized using a Ploytron at setting 5 for 10 seconds. An aliquot was taken for a protein determination using a BioRad protein assay kit. Membranes were centrifuged at 48,000×g for 10 minutes at 4° C. Pellets were resuspended in the TES buffer with 0.1% BSA and 0.014% bacitracin. 0.5 ml aliquots were frozen in liquid N2 and stored at -80° C. for up to 2 weeks.
Membranes from H2O.2 cells previously prepared were thawed at 37° C. and diluted in 25 mM TES, […] 1,10-phenanthroline pH 6.8 containing BSA and bactiracin. […] Non-specific binding was determined with 1 μM bradykinin. The tubes were incubated 90 minutes at 25° C. and the assay was terminated by rapid vacuum filtration onto Whatman GF/B filters presoaked with 0.2% PEI for 3 hours followed by 2×3 ml aliquots of ice-cold 50 mM Tris, pH 7.4. Radioactivity was counted with a Beckman scintillation counter.

| Structure (SMILES) | Ki [nM] |
| --- | --- |
| N=C(N)NCCC[C@@H](N)C(=O)N[C@@H](CCCNC(=N)N)C(=O)NCc1ccccc1/C=C/C(=O)N[C@@H](CO)C(=O)N1Cc2ccccc2C[C@@H]1C(=O)N1[C@H](C(=O)N[C@@H](CCCNC(=N)N)C(=O)O)C[C@@H]2CCCC[C@@H]21 (H-[dR]R[X2]S[dTic][Oic]R-OH) | 27 |

Tested on: bradykinin-induced contraction of guinea pig ileum longitudinal muscle
Experiment: Guinea pig ileum contraction assay
Type: cell-based
Conditions: Schild analysis against bradykinin
Protocol: Guinea pig intestine was removed and placed in a Petri dish containing Tyrodes solution and cut into 3-4 cm segments.
After equilibration of the tissues, appropriate volumes of bradykinin solutions were cumulatively added to the 10 ml tissue baths to increase the concentration of bradykinin in the bath step-by-step without washing out after each single dose. Higher concentrations were added only after the preceding contraction had reached a steady value. […] Antagonism of bradykinin responses to the presence of antagonist were determined by repeating the cumulative addition procedure for bradykinin after the tissue has been exposed to the antagonist for 5 minutes. Three or four different concentrations of antagonist were studied sequentially in the same preparations. Responses were expressed as a percentage of the maximum […] elicited by bradykinin in the absence of antagonist. pA2 values were calculated by Schild analysis.

| Structure (SMILES) | Guinea Pig Ileum Contraction pA2 |
| --- | --- |
| N=C(N)NCCC[C@@H](N)C(=O)N[C@@H](CCCNC(=N)N)C(=O)N1CCC2(CC1)C(=O)N(CC(=O)N[C@@H](CO)C(=O)N1Cc3ccccc3C[C@@H]1C(=O)N1[C@H](C(=O)N[C@@H](CCCNC(=N)N)C(=O)O)C[C@@H]3CCCC[C@@H]31)CN2c1ccccc1 [HDArgArgX[Ph]CH2 COSerDTicOicArgOH] | 6.7 |
| N=C(N)NCCC[C@@H](N)C(=O)N[C@@H](CCCNC(=N)N)C(=O)N1CCC2(CC1)C(=O)N(CC(=O)N[C@@H](CO)C(=O)N1Cc3ccccc3C[C@@H]1C(=O)N1[C@H](C(=O)N[C@@H](CCCNC(=N)N)C(=O)O)C[C@@H]3CCCC[C@@H]31)CN2C1CCCCC1 [HDArgArgX[c-C6 H11]CH2 COSerDTicOicArgOH] | 6.4 |
